Test results published in patent publication US7122326B2 (Universite Louis Pasteur, priority 2001, dated 2006).
“Also recorded” adds a separate entry of the source. Read-outs that look alike come from different tables or passages of the source.

Columns and labels:
[1] = rat, in vivo
Method: Methods: Rats were given an i.p. injection of XA 50 mg/kg and then sacrificed 30 minutes later by microwave irradiation. Brains were dissected and XA was assayed in 20 different regions of the brain.

[2] = tested on: xanthurenic acid binding site(s); assay: [3H]-XA binding to synaptic membranes, without ions; set-up: species or system rat
[3] = tested on: xanthurenic acid receptor(s); type: cell-based
[4] = tested on: rat; assay: Open field test of global reactivity (XA); conditions: in vivo
[5] = tested on: rat; assay: Porsolt test (swimming test); conditions: in vivo
Method: The following doses were used: 50, 100, 150 and 200 mg/kg i.p.
This test has been validated with imipramine 30 mg/kg. The test described by Porsolt et al., Eur. J. Pharmacol. 1978, 47: 379–391, was used.

[6] = tested on: rat; assay: Dopaminergic stereotypies after intracerebral injection; conditions: in vivo
Method: The product was injected by the intracerebroventricular route (i.c.v.) on the one hand, and in defined brain structures on the other hand: ventral tegmental area (A10), substantia nigra (A9) or nucleus accumbens. […] After disappearance of the stereotypies (30±15 minutes), reinjection of XA induced the same effects.
The following stereotypies are observed: licking, chewing, hyperactivity, exploring, standing, grooming, burrowing, stretching and sniffing.
These behaviors developed two minutes after the intracerebral injection and lasted for 30 to 40 minutes. One hour after such behaviors disappeared, they could be re-induced by another injection.

[7] = tested on: glutamate release in the frontal cortex; assay: Frontal extracellular glutamate release after retrodialysis of XA; conditions: rat, in vivo
Method: Amino acids contained in 15 μl of dialysate were separated according to their hydrophobicity by reverse phase high performance liquid chromatography (HPLC). […] The mobile phase was composed of a binary gradient between solution A: 0.05 M NaH2PO4 (Roth) 80% (pH 4.8 adjusted with 10 N NaOH), methanol 20% (Chromanorm, Prolabo); and solution B: 0.05 M NaH2PO4 20% (pH 4.8 ajusted with 10 N NaOH), methanol 80% and THF 5%. Glutamate and GABA were measured by fluorimetric detection at an excitation wavelength of 345 nm and an emission wavelength of 455 nm after derivatization. Chromatogram acquisition and quantitative data analysis were done with Millenium software (Waters).
The samples were derivatized by mixing 15 μl of dialysate with 15 μl of the following derivatization solution: 7.5 mg o-phthaldialdehyde (Sigma) in 4.5 ml of 0.1 M sodium tetraborate pH 9.3, 500 μl of methanol and 10 μl of 3-mercapto-propionic acid (Sigma). The elution rate was 0.8 ml/min at 35° C. in a series of steps: 90% A and 10% B at 0 min; 40% A and 60% B to 15 min (linear gradient); 40% A and 60% B to 19 min (isocratic gradient); 0% A and 100% B to 19.1 min; 0% A and 100% B to 24 min (isocratic gradient); 90% A and 10% B to 24.1 min (isocratic gradient) and 90% A and 10% B to 30 min. […]

[8] = tested on: rat; assay: Reversal of XA-induced sedation in the open field test; conditions: in vivo
Method: Study of reversal of sedation induced by XA 100 mg/kg i.p

[9] = tested on: rat; conditions: in vivo
[10] = tested on: rat; conditions: in vivo; cited from earlier work
[11] = in vivo, ip; cited from earlier work
[12] = tested on: rat; conditions: in vivo; cited from earlier work; remark: listed apart in the source
[13] = tested on: mice; conditions: mouse, in vivo; cited from earlier work
[14] = tested on: Grp 94 and calreticulin expression; conditions: cited from earlier work

With `O=C(O)c1cc(O)c2cccc(O)c2n1` [XA, xanthurenic acid] the “Brain regions where XA accumulated” value [1] was “accumulated primarily in the frontal and prefrontal cortex (PFC), temporal and parietal cortex, amygdala, dopaminergic nuclei and in the striatum”, the “kob (observed association rate)” value ([2]; pH 7.4) was 0.53 ± 0.16 min⁻¹ and the “time to binding equilibrium” value ([2]; pH 7.4) was 10 to 15 min. The Kd ([2]; pH 7.4, read-out: Kd (saturation experiment)) was 743 nM, the IC50 ([2]; read-out: IC50, two site binding model, first site) was 300 nM and the IC50 ([2]; read-out: IC50, two site binding model, second site) was 57000 nM. For the same compound, the Kd ([2]; read-out: Kd=koff/kon) was ~330 nM, the “factor of increase of current amplitude at the peak of the transient current” value [3] was 5 factor and the “factor of increase of current amplitude, on average” value [3] was 5.0±1.7 factor. The “inversion potential, onset of the response” value [3] was −16.5 mV, the “inversion potential, second phase of the response” value [3] was −4.2 mV and the mean outflux current [3] was “considerably increased”. The “doses to obtain an anxiolytic effect in animals” value [4] was “less than 50 mg/kg”, the “exploration of the center of the cage / open field” value [4] was “significantly increased; also recorded: promotes movement of the animal to the center of the lighted open field” and the “sedation in the open field test” value [4] was “absence of sedation”. The “cumulative duration of immobility” value [5] was “statistically significant decrease in the cumulative duration of immobility; also recorded: duration of immobility decreases with increasing doses”, the stereotypies [6] was “dose-related stereotypies were observed; also recorded: induced dose-dependent stereotypies” and the “time to disappearance of the stereotypies” value [6] was 30 ± 15 min. The “decrease in GLU release” value [7] was 37%, the Grooming [8] was 4 ± 2 and the Inner squares [8] was 19 ± 6. It also gave an Outer squares [8] of 91 ± 17, a Standing [8] of 37 ± 14 and a Total squares [8] of 110 ± 25. For the same compound, the “amplitude of the EEG waves” value [9] was “reduction in the amplitude of the EEG waves”, the “decrease in body temperature” value [9] was −0.5 to −2 °C and the “analgesic effect in hotplate and tail flick tests” value [10] was “analgesic effect”. The “latency time to onset of epileptic seizures” value [11] was “prolonged the latency time to onset of epileptic seizures”, the ECG [12] was “does not modify the ECG” and the head twitch behavior [13] was “does not induce head twitch behavior”. The “expression of Grp 94 and of calreticulin” value [14] was “induces an increase in the expression” and the “xanthurenic acid concentrations required to produce these effects” value [14] was “in the millimolar range”.
